Earlier results as cited in US20230398111A1, “ORAL FORMULATIONS OF NINTEDANIB AND METHOD OF MANUFACTURING THEREOF” (BDR PHARMACEUTICALS INTERNATIONAL PRIVATE LIMITED, priority 2020, published 2023).

Settings: neutral conditions / neutral pH

COC(=O)c1ccc2c(c1)NC(=O)/C2=C(\Nc1ccc(N(C)C(=O)CN2CCN(C)CC2)cc1)c1ccccc1 [Nintedanib esylate, methyl-2-hydroxy-3-[N-[4-[methyl-[2-(4-methylpiperazin-1-yl)acetyl]amino]phenyl]-C-phenylcarbonimidoyl]-1H-indole-6-carboxylate ethanesulfonic acid]
solubility: poor solubility
